Experiments:
[1] = test system: broadleaf weeds; test: Control of broadleaf weeds by ester concentrates (statements of the description); format: in vivo; settings: for control of a number of broadleaf weeds in field testing, in words: emulsifiable and suspension concentrates, Sesbania macrocarpa, morning glory, velvetleaf, Palmer amaranth, fat hen, sicklepod; for field efficacy for control of broadleaf weeds compared with the diglycolamine salt of dicamba, in words: field tests of emulsifiable concentrates
[2] = In vitro dicamba photo-release from photo-labile dicamba esters, tetrahydrofuran solvent (Example 26); format: physicochemical; settings: THF, 0.1 mM ester; for Dark Control % dicamba: initial solution kept away from the light source, analyzed at conclusion of study
Procedure: This Example describes in vitro testing of dicamba photo-release by homogeneous solutions of photo-labile dicamba esters. The esters were dissolved in tetrahydrofuran (THF). Ester concentration was 0.1 mM. 25 ml of the solution was transferred to 22 mm tubes fabricated from graded seal quartz tubing with a 19/22 tapered seal at the top, which was closed with a tapered glass plug and secured with a plastic ring clamp. The solution was entirely below the quartz-to-glass transition, ensuring that the entire volume was exposed to the full spectrum.
The sealed tubes were placed in a Growth Chamber where they were exposed to simulated sunlight for 14 hours per day at 35° C. Dicamba concentrations in the solution were measured during the course of the photolysis.
A sample of the initial solution was reserved in a glass vial away from the light source and analyzed at the conclusion of the study, providing a measurement of the amount of dicamba present without illumination of the photolysis solution (the “dark control”).

[3] = test system: morning glory; test: Field testing of emulsifiable concentrates, post-emergent control (Example 38); format: in vivo; settings: for post-emergent control of morning glory compared with the dicamba salt, in words: 280 and 420 g dicamba acid equivalent per hectare; for % control, 280 g/ha, Morning glory: 280 g dicamba acid equivalent per hectare; for % control, 280 g/ha, Morning glory / % control, 420 g/ha, Morning glory: 11 or 21 days after treatment; for % control, 420 g/ha, Morning glory: 420 g dicamba acid equivalent per hectare
Description: (§1) Four dicamba esters, 1a, 2, 9, and 13a, were formulated as emulsifiable concentrates for field testing. All formulations contained 5% each of a alkylbenzene sulfonate calcium salt (Huntsman NANSA EVM 62/H or Akzo Nobel WITCONATE P-1220 EH) and castor oil ethoxylate (Huntsman SURFONIC CO-54) as the emulsifiers and Aromatic 200 (Exxon) or monochlorobenzene (MCB) as the solvent.
(§2) The esters were compared to the diglycolamine salt of dicamba (CLARITY™) for post-emergent control of three broadleaf weeds: velvetleaf, morning glory, and hemp sesbania. Rates of 280 and 420 g dicamba acid equivalent per hectare were used. […] Evaluations were conducted at 11 or 21 days after treatment. Locations and timing were identical for all formulations tested.

[4] = test system: velvetleaf; test: as above; format: in vivo; settings: for post-emergent control of velvetleaf compared with the dicamba salt, in words: 280 and 420 g dicamba acid equivalent per hectare; for % control, 280 g/ha, Velvetleaf: 280 g dicamba acid equivalent per hectare; for % control, 280 g/ha, Velvetleaf / % control, 420 g/ha, Velvetleaf: 11 or 21 days after treatment; for % control, 420 g/ha, Velvetleaf: 420 g dicamba acid equivalent per hectare
Description: as §1, §2

[5] = test system: hemp sesbania; test: as above; format: in vivo; settings: for post-emergent control of hemp sesbania compared with the dicamba salt, in words: 280 and 420 g dicamba acid equivalent per hectare; for % control, 280 g/ha, Hemp sesbania: 280 g dicamba acid equivalent per hectare; for % control, 280 g/ha, Hemp sesbania / % control, 420 g/ha, Hemp sesbania: 11 or 21 days after treatment; for % control, 420 g/ha, Hemp sesbania: 420 g dicamba acid equivalent per hectare
Description: as §1, §2

[6] = In vitro photo-release and hydrolytic release of dicamba in an aqueous medium (Example 35); format: physicochemical; settings: 0.01 mM ester, 35° C.; for Conversion to Dicamba, Dark, Day 0 / Conversion to Dicamba, Dark, Day 1 / Conversion to Dicamba, Dark, Day 2 / Conversion to Dicamba, Dark, Day 3 / Conversion to Dicamba, Dark, Day 4 / Conversion to Dicamba, Dark, Day 7 / Conversion to dicamba, Dark, Day 10 / Conversion to Dicamba, Dark, Day 14 / Conversion to Dicamba, Dark, Day 21 / Conversion to Dicamba, Dark, Day 28: amber (dark) bottle; for Conversion to Dicamba, Light, Day 0 / Conversion to Dicamba, Light, Day 1 / Conversion to Dicamba, Light, Day 2 / Conversion to Dicamba, Light, Day 3 / Conversion to Dicamba, Light, Day 4 / Conversion to Dicamba, Light, Day 7 / Conversion to dicamba, Light, Day 10 / Conversion to Dicamba, Light, Day 14 / Conversion to Dicamba, Light, Day 21 / Conversion to Dicamba, Light, Day 28: quartz tube, 14-hour day
Procedure: This Example describes the determination of photo-lability and hydrolytic lability of dicamba esters in an aqueous medium. 1 mM solutions of the esters were prepared in acetonitrile (or […] solutions of dicamba diesters). The solutions were then diluted with deionized water to a concentration of 0.01 mM (or 0.005 mM for diesters). The solutions were then transferred to quartz tubes and amber bottles and held in a growth chamber by the procedure of Example 26. A 14-hour day was generally used at a constant temperature of 35° C. Hydrolytic activity was assessed by measuring the increase in dicamba concentration after day zero in the amber (dark) bottles. […] Photolysis manifested itself as increased conversion in the quartz tubes compared to the dark control.

[7] = test system: glyphosate-tolerant, dicamba-sensitive soy plants; test: Humidome volatility injury to dicamba-sensitive plants (Example 31); settings: assessed after three weeks in greenhouse; for % Injury: soy plants 24 hours in closed humidome over sprayed soil (0.5% dicamba equivalent + 1.5% glyphosate), 35° C.; for Growth Stage: soy plants 24 hours in closed humidome over sprayed soil
Description: In this case, the diglycolamine salt of dicamba (CLARITY®) was used for comparison.
Dicamba photo-labile ester formulations from Example 28 were mixed with a commercial glyphosate formulation (ROUNDUP POWERMAX®) and diluted to provide a solution with a 0.5% dicamba equivalent concentrate of the ester (or dicamba diglycolamine salt) and 1.5% concentrate of glyphosate. The mixtures were sprayed at a 10 gallon per acre (93.5 liters per hectare) rate on soil in a plastic container (“humidome”) with a transparent lid. One soil container was sprayed with water as a control. Four glyphosate-tolerant, dicamba-sensitive soy plants between V2 and V3 stage were immediately placed on the sprayed soil and the domes attached to the trays with binder clips. The soy plants were in pots placed directly on the soil but with aluminum foil wrapped around the bottom to prevent uptake of dicamba or dicamba esters through the roots.
The closed containers were held for 24 hours in a growth chamber which was maintained at 35° C. with 40% relative humidity. The plants were then removed and grown in a greenhouse for three weeks. At this time plant injury and growth stage were assessed compared to the control treated with water only.

[8] = test system: velvetleaf; test: Greenhouse post-emergent control of velvetleaf by emulsifiable concentrates (Example 29); format: in vivo; settings: three weeks after treatment; for % Control of velvetleaf, 140 g/ha: 140 g dicamba equivalent per hectare; for % Control of velvetleaf, 280 g/ha: 280 g dicamba equivalent per hectare; for % Control of velvetleaf, 420 g/ha: 420 g dicamba equivalent per hectare; for % Control of velvetleaf, 560 g/ha: 560 g dicamba equivalent per hectare
Method in brief: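 Greenhouse velvetleaf 10–15 cm tall sprayed post-emergence with photo-labile ester emulsifiable concentrates at 140, 280, 420 and 560 g dicamba equivalent/ha, alongside dicamba diglycolamine salt at the same rates and untreated plants. Percent control scored three weeks after treatment.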

[9] = test system: Euphorbia species; test: Field testing for post-emergent activity in the Southern Hemisphere (Example 39); format: in vivo; settings: 9 as suspension concentrate, other esters as emulsifiable concentrates
Method in brief: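 Southern Hemisphere field trial, post-emergence application on Euphorbia weeds. Esters applied as emulsifiable concentrates in aromatic solvent with emulsifiers, one ester as a suspension concentrate. Dicamba diglycolamine salt served as comparator.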

[10] = simulated sunlight 14 hours per day, 35° C.

## COc1c(Cl)ccc(Cl)c1C(=O)OCCc1ccccc1[N+](=O)[O-] [Ester 2, 2-Nitrophenethyl Ester of Dicamba]
[1]
  control of a number of broadleaf weeds in field testing, in words: proven effective
  field efficacy for control of broadleaf weeds compared with the diglycolamine salt of dicamba, in words: slightly more effective than the diglycolamine salt of dicamba
[2]
  Dark Control % dicamba: 0%
[2]; [10]
  Conversion to dicamba, 1 day: 46%
  Conversion to dicamba, 2 days: 54%
  Conversion to dicamba, 3 days: 72%
  Conversion to dicamba, 5 days: 84%
  Conversion to dicamba, 7 days: 88%
[2]; simulated sunlight 14 hours per day, 35° C., 9 days
  Conversion to dicamba, 9 days: 98%
[2]; simulated sunlight 14 hours per day, 35° C., 12 days
  Conversion to dicamba, 12 days: 96%
[2]; simulated sunlight 14 hours per day, 35° C., 15 days
  Conversion to dicamba, 15 days: 95%
[3]
  post-emergent control of morning glory compared with the dicamba salt, in words: equivalent to the dicamba salt
  % control, 280 g/ha, Morning glory: 94%
  % control, 420 g/ha, Morning glory: 95%
[4]
  post-emergent control of velvetleaf compared with the dicamba salt, in words: equivalent to the dicamba salt
  % control, 280 g/ha, Velvetleaf: 85%
  % control, 420 g/ha, Velvetleaf: 92%
[5]
  post-emergent control of hemp sesbania compared with the dicamba salt, in words: equivalent to the dicamba salt
  % control, 280 g/ha, Hemp sesbania: 92%
  % control, 420 g/ha, Hemp sesbania: 97%
[6]
  Conversion to Dicamba, Dark, Day 0: 3%
  Conversion to Dicamba, Dark, Day 1: 3%
  Conversion to Dicamba, Dark, Day 2: 3%
  Conversion to Dicamba, Dark, Day 3: 3%
  Conversion to Dicamba, Dark, Day 4: 3%
  Conversion to Dicamba, Dark, Day 7: 3%
  Conversion to dicamba, Dark, Day 10: 3%
  Conversion to Dicamba, Dark, Day 14: 3%
  Conversion to Dicamba, Dark, Day 21: 3%
  Conversion to Dicamba, Dark, Day 28: 3%
  Conversion to Dicamba, Light, Day 0: 3%
  Conversion to Dicamba, Light, Day 1: 78%
  Conversion to Dicamba, Light, Day 2: 79%
  Conversion to Dicamba, Light, Day 3: 75%
  Conversion to Dicamba, Light, Day 4: 77%
  Conversion to Dicamba, Light, Day 7: 78%
  Conversion to dicamba, Light, Day 10: 84%
  Conversion to Dicamba, Light, Day 14: 82%
  Conversion to Dicamba, Light, Day 21: 83%
  Conversion to Dicamba, Light, Day 28: 86%
[7]
  % Injury: 13%
  Growth Stage: 9
[8]
  % Control of velvetleaf, 140 g/ha: 50%
  % Control of velvetleaf, 280 g/ha: 69%
  % Control of velvetleaf, 420 g/ha: 78%
  % Control of velvetleaf, 560 g/ha: 90%

## COc1c(Cl)ccc(Cl)c1C(=O)OCc1ccccc1[N+](=O)[O-] [Ester 1a, 2-Nitrobenzyl Ester of Dicamba]
[9]; 0.25 lb dicamba a.e. per acre
  % control, 0.25 lb/ac (0.28 kg/hectare): 72%
[9]; 0.50 lb dicamba a.e. per acre
  % control, 0.50 lb/ac (0.56 kg/hectare): 78%
[1]
  control of a number of broadleaf weeds in field testing, in words: proven effective
  field efficacy for control of broadleaf weeds compared with the diglycolamine salt of dicamba, in words: slightly more effective than the diglycolamine salt of dicamba
[2]
  Dark Control % dicamba: 1%
[2]; [10]
  Conversion to dicamba, 1 day: 22%
  Conversion to dicamba, 2 days: 33%
  Conversion to dicamba, 3 days: 47%
  Conversion to dicamba, 5 days: 66%
  Conversion to dicamba, 7 days: 76%
[3]
  post-emergent control of morning glory compared with the dicamba salt, in words: equivalent to the dicamba salt
  % control, 280 g/ha, Morning glory: 100%
  % control, 420 g/ha, Morning glory: 98%
[4]
  post-emergent control of velvetleaf compared with the dicamba salt, in words: equivalent to the dicamba salt
  % control, 280 g/ha, Velvetleaf: 86%
  % control, 420 g/ha, Velvetleaf: 92%
[5]
  post-emergent control of hemp sesbania compared with the dicamba salt, in words: equivalent to the dicamba salt
  % control, 280 g/ha, Hemp sesbania: 95%
  % control, 420 g/ha, Hemp sesbania: 98%
[6]
  Conversion to Dicamba, Dark, Day 0: 7%
  Conversion to Dicamba, Dark, Day 1: 8%
  Conversion to Dicamba, Dark, Day 2: 8%
  Conversion to Dicamba, Dark, Day 3: 8%
  Conversion to Dicamba, Dark, Day 4: 7%
  Conversion to Dicamba, Dark, Day 7: 8%
  Conversion to dicamba, Dark, Day 10: 8%
  Conversion to Dicamba, Dark, Day 14: 8%
  Conversion to Dicamba, Dark, Day 21: 8%
  Conversion to Dicamba, Dark, Day 28: 8%
  Conversion to Dicamba, Light, Day 0: 7%
  Conversion to Dicamba, Light, Day 1: 13%
  Conversion to Dicamba, Light, Day 2: 16%
  Conversion to Dicamba, Light, Day 3: 18%
  Conversion to Dicamba, Light, Day 4: 21%
  Conversion to Dicamba, Light, Day 7: 29%
  Conversion to dicamba, Light, Day 10: 37%
  Conversion to Dicamba, Light, Day 14: 54%
  Conversion to Dicamba, Light, Day 21: 75%
  Conversion to Dicamba, Light, Day 28: 107%
[7]
  % Injury: 8%
  Growth Stage: 8
[8]
  % Control of velvetleaf, 140 g/ha: 46%
  % Control of velvetleaf, 280 g/ha: 60%
  % Control of velvetleaf, 420 g/ha: 75%
  % Control of velvetleaf, 560 g/ha: 73%
